Columns and labels:
Dihydrofolate reductase [1] = molecular target: T1, Dihydrofolate reductase (Pneumocystis carinii, UniProt P16184); experiment: Inhibition of Dihydrofolate reductase from Pneumocystis carinii (Pneumocystis carinii)
T1 sequence (P16184 whole entry): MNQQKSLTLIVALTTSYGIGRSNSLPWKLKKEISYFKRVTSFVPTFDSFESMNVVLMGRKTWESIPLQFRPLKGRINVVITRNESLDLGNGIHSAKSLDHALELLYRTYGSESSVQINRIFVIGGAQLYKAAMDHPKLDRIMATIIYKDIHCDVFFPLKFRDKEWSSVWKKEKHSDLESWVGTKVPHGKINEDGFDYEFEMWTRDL

Dihydrofolate reductase [2] = molecular target: T2, Dihydrofolate reductase (Rattus norvegicus, UniProt Q920D2); experiment: Inhibitory concentration against Dihydrofolate reductase from rat liver
T2 sequence (Q920D2 whole entry): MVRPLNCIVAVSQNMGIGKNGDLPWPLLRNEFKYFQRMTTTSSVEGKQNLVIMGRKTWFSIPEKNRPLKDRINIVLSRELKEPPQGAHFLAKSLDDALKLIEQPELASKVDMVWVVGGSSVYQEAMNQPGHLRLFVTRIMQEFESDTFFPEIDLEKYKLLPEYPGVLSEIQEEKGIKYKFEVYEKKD

Dihydrofolate reductase [3] = molecular target: T3, Dihydrofolate reductase (Mycobacterium avium, UniProt O30463); experiment: Inhibitory concentration against Dihydrofolate reductase from Mycobacterium avium (Mycobacterium avium)
T3 sequence (O30463 whole entry): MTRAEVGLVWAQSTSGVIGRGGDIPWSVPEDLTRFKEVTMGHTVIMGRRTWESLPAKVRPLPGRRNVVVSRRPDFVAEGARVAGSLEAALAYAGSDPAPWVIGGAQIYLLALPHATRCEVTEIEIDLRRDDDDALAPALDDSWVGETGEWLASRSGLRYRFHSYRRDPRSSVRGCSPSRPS

[4] = Selectivity ratio (IC50rlDHFR)/(IC50 tgDHFR)
[5] = molecular target: T4, Bifunctional dihydrofolate reductase-thymidylate synthase (Toxoplasma gondii, UniProt Q07422); experiment: Inhibitory concentration against Dihydrofolate reductase from Toxoplasma gondii (Toxoplasma gondii)
T4 sequence (Q07422 whole entry): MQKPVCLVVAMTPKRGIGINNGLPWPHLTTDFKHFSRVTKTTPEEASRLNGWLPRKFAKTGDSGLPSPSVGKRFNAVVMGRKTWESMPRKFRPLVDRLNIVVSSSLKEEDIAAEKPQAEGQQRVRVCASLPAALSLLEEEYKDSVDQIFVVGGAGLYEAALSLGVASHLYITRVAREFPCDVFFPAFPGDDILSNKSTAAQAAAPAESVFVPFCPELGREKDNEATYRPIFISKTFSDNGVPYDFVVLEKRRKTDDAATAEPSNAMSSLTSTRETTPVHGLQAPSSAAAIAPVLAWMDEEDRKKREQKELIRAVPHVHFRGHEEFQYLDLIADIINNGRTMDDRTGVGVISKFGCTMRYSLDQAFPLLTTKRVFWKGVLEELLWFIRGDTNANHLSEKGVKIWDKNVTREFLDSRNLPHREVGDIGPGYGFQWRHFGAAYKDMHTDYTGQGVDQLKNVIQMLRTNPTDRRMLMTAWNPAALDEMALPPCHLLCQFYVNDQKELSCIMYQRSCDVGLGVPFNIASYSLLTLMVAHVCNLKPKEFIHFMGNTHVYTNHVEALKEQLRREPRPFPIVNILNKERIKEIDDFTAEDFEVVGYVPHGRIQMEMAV

[6] = Selectivity ratio (IC50 rlDHFR)/(IC50 maDHFR)
[7] = Selectivity ratio [(IC50 rlDHFR)/(IC50 pcDHFR)
[8] = molecular target: T5, Dihydrofolate reductase (Pneumocystis carinii) (UniProt P16184); experiment: Inhibition against Dihydrofolate reductase from Pneumocystis carinii (Pneumocystis carinii) at 12 uM of compound
T5 sequence (whole entry): T1 sequence (P16184 whole entry)

Compound | IC50 (Dihydrofolate reductase [1]) | IC50 (Dihydrofolate reductase [2]) | IC50 (Dihydrofolate reductase [3]) | Selectivity ratio [4] | IC50 [5] | Selectivity ratio [6] | Selectivity ratio [7] | inhibition [8]
Cc1c(Sc2ccc(Cl)cc2)[nH]c2nc(N)nc(N)c12 | 16.7 µM | 19 µM | 4 µM |  |  |  |  | 
COc1ccc(Sc2[nH]c3nc(N)nc(N)c3c2C)cc1 | 112 µM | 31.3 µM | 0.6 µM |  |  |  |  | 
Cc1c(Sc2cccc3ccccc23)[nH]c2nc(N)nc(N)c12 |  |  | 0.7 µM | 27.9 | 0.16 µM | 6.92 | 0.12 | 
COc1ccccc1Sc1[nH]c2nc(N)nc(N)c2c1C | 22 µM | 2.32 µM | 0.3 µM |  |  |  |  | 
COc1cc(CC2CN=C(N)N=C2N)cc(OC)c1OC (centres undefined) |  |  | 0.3 µM |  |  |  |  | 
Cc1c(Sc2ccc(Cl)cc2Cl)[nH]c2nc(N)nc(N)c12 | > 12 µM | 110 µM | 19 µM | 5.5 | 20 µM | 5.79 |  | 14%
COc1ccc(OC)c(Sc2[nH]c3nc(N)nc(N)c3c2C)c1 |  | 7.8 µM |  |  | 0.17 µM |  |  | 
Cc1c(Sc2cccc(Cl)c2)[nH]c2nc(N)nc(N)c12 |  | 47.7 µM | 4.4 µM |  |  |  |  | 
COc1cccc(Sc2[nH]c3nc(N)nc(N)c3c2C)c1 | 60.2 µM | 2.06 µM | 1.37 µM |  |  |  |  | 

From ChEMBL document CHEMBL1148359, “Design, synthesis, and biological evaluation of 2,4-diamino-5-methyl-6-substituted-pyrrolo[2,3-d]pyrimidines as dihydrofolate reductase inhibitors” (J Med Chem, 2004)
